In paper PMC6972728, “Anthranilamide-based Short Peptides Self-Assembled Hydrogels as Antibacterial Agents” (Scientific Reports, 2020):
Square brackets hold non-standard residues; d marks the D form. Peptide text beside a SMILES is read from it. * marks the point of attachment. 2Abz = Nc1ccccc1C(=O)O; Bz = O=C(c1ccccc1)*

Legend:
S. aureus = conditions: cited from earlier work
Description: With a complete understanding of the hydrogel ultrastructure now in-hand, the antibacterial activity of N-acetyl 1, N-benzoyl 2 and N-naphthoyl 3 was assessed, in order to evaluate the effect of increased hydrophobicity on antibacterial activity. Further, the stiffest (BA 9) and softest (methyl 6) of the remaining gelators were tested to discern the relationship of hydrogel stiffness to antimicrobial activity. Staphylococcus aureus, the most common causative organism for skin and soft tissue infections, was chosen as the bacterial strain to assess the hydrogels antibacterial activity. Thes ...

[1] = not given; remark: listed apart in the source
HEK293T cells = assay: Contact cytotoxicity of hydrogels, Alamar Blue colorimetric assay; type: cell-based; conditions: hydrogels at 0.25, 0.5 and 1% (w/v), cells seeded on hydrogel, 24 h, repeated at least three times
Description: With this in mind, the cytotoxicity of lead candidates N-benzoyl 2, N-naphthoyl 3, and BA 9 (para) from the antibacterial studies were examined against HEK293T cells, as a robust mammalian cell model. As the antibacterial activity of the 2, 3 and 9 was evaluated in the gel phase, contact cytotoxicity of hydrogels at concentrations of 0.25, 0.5, and 1% (w/v) was examined.
Similar to previously reported method, cytotoxicity measurement was performed using an Alamar Blue colorimetric assay on HEK293T cells. HEK293T cells were passaged using standard cell culture procedures. Cells were detached with trypsin and centrifuged (1000 rpm for 3 min). After supernatant was removed, the cells were re-suspended in Dulbecco’s Modified Eagle Medium (DMEM) at a concentration of 60,000 cells/mL. Cells were seeded onto hydrogels at a concentration of 6,000 cells/well. Hydrogels were prepared as described above and 100 µL cast into the wells of a 96 well plate in triplicate. After incubating overnight, 100 µL media was added to the set hydrogels and incubated overnight. The following day, excess media was aspirated and cells seeded atop the hydrogels as above. After incubation for 24 hours, 10 µL Alamar Blue was added to each well, followed by further incubation for another 4 hours. […] BioRad Benchmark plate reader was used to measure the absorbance at 570 nm and 596 nm. […]

[2] = Temperature dependent CD spectroscopy (thermal denaturation); type: physicochemical; conditions: temperature increased from 25 °C to 60 °C; diluted hydrogel
Description: In addition, CD spectroscopy was also used as a tool to investigate gradual thermal denaturation of anthranilamide-based short peptides.
The anthranilamide-based hydrogels were prepared at 0.8% (w/v) and were diluted 10 times before being transferred into a 0.5 mm path length cuvette. Meanwhile, for the concentration dependence, the hydrogel made from N-benzoyl 2 at 0.8% (w/v) was diluted to make up concentrations ranging from 0.058 mM – 0.470 mM before being transferred into a 0.5 mm path length cuvette.
CD spectrum were obtained using a ChirascanPlus CD spectrometer (Applied Photophysics, UK) scanning wavelengths of 180–500 nm with a bandwidth of 1 nm, 0.6 s per point, and step of 1 nm[22]. The outcome of three experiments were then averaged and plotted into a single plot value. The high tension (HT) value of each experiment was maintained to be below 600 mV (Fig. S17).

[3] = Hydrogel formation, critical gel concentration and gelation time by vial inversion test; type: physicochemical
Excerpt: Several triggers such as physical stimuli, pH switch, solvent switch, or a combination of these, were employed to assess the self-assembly of compounds 1–11 in water. Initially, hydrogel formation of compounds 1–11, at 1% (w/v), was investigated using a combination of pH switch and temperature switch. The compounds were heated in dilute sodium hydroxide (NaOH) in order to deprotonate the carboxylic acid group at the C-terminus of the short peptides.
Compared to a mineral acid, GdL promotes the formation of a homogenous hydrogel due to its slow hydrolysis and fast dissolution rate in water[39],[40].
In addition, the effect of salt which can induce gelation in basic peptide solutions[41], due to high ionic was also investigated for peptides 1–11.
In a final attempt to induce gelation in peptides 4, 7 and 11, a solvent switch method using dimethyl sulfoxide (DMSO), methanol, or ethanol as co-solvent was employed[42]–[47]. […] Given that these hydrogels were designed with antibacterial applications in mind, due to the potential toxicity concerns arising from the use of organic co-solvents, further characterisation of peptides 4, 7 and 11 was not carried out.
The critical gel concentration (CGC) represents the minimum amount of the anthranilamide-based short peptide required to form a hydrogel. The CGC of anthranilamide-based short peptides were qualitatively assessed by varying the short peptide concentrations and conducting vial inversion test[48]–[50]. […] Here, gelation time represents the time required for these short peptides, at 1% (w/v), to form self-supporting hydrogels as assessed through the vial inversion test.
To a pre-weighed compound in a glass vial, 1 M NaOH (2–8 molar equiv.) was added followed by addition of Mili-Q water. The suspension was then heated and vortexed vigorously for 15 minutes to completely dissolve the compound. In the case of N-acetyl 1, N-benzoyl 2, N-naphthoyl 3, fluoro 5 and methyl 6, these clear solutions were left to cool to room temperature for 1–30 minutes. GdL (2–3 equiv.) was added to a solution of compounds 7–11 in NaOH. […]

SMILES: CC(=O)Nc1ccccc1C(=O)N[C@@H](Cc1ccccc1)C(=O)N[C@@H](Cc1ccccc1)C(=O)O (Ac-[2Abz]-Phe-Phe-OH)
- amide I peak (disordered coil): 1650 cm⁻¹

SMILES: [Na+].[OH-] [NaOH, sodium hydroxide]
- MIC (S. aureus): 7500 µg/mL

SMILES: O=C(Nc1ccccc1C(=O)N[C@@H](Cc1ccccc1)C(=O)N[C@@H](Cc1ccccc1)C(=O)O)c1ccccc1 [compound 2] ({Bz-2Abz}-Phe-Phe-OH)
- Gʹ (stiffness) [1]: 16.9 kPa
- Cytotoxicity towards HEK cells (HEK293T cells): moderate cytotoxicity
- Thermal stability of ß-sheet secondary structure (CD) [2]: no significant conformational changes

SMILES: O=C(Nc1ccccc1C(=O)N[C@@H](Cc1ccccc1)C(=O)N[C@@H](Cc1ccccc1)C(=O)O)c1ccc2ccccc2c1 [compound 3]
- Gʹ (stiffness) [1]: 5.7 kPa
- Cytotoxicity towards HEK cells (HEK293T cells): poor cell viability

SMILES: O=C(N[C@@H](Cc1ccccc1)C(=O)N[C@@H](Cc1ccccc1)C(=O)O)c1ccccc1NS(=O)(=O)c1cccc2ccccc12 [compound 4]
- Hydrogel formation outcome ([3]; 1% (w/v), heated in dilute NaOH, cooled to room temperature (pH switch and temperature switch), up to 48 hours): remained as clear solutions
- Hydrogel formation outcome ([3]; 3 equivalents of GdL added to basic solution): white precipitate
- Hydrogel formation outcome ([3]; solvent switch, DMSO: water at 1% w/v): gels were observed only for the first 5 minutes
